Read-outs that look alike come from different tables or passages of the source. Where only a bound is given, the exact number is not on record here.

Assay [1] concerns HCV sub-genomic replicon, GS4.3. In words: Quantitation by ELISA of NPTII in the HCV sub-genomic replicon, GS4.3, Section B. It is filed as cell-based. To be noted: Hepatitis C virus, read-out: Replicon EC50. The text has this: Quantitation by ELISA of the Selectable Marker Protein, Neomycin Phosphotransferase II (NPTII) in the HCV Sub-Genomic Replicon, GS4.3
The HCV sub-genomic replicon (1377/NS3-3′, accession No. AJ242652), stably maintained in HuH-7 hepatoma cells, was created by Lohmann et al. Science 285: 110-113 (1999). The replicon-containing cell culture, designated GS4.3, was obtained from Dr. Christoph Seeger of the Institute for Cancer Research, Fox Chase Cancer Center, Philadelphia, Pa.
GS4.3 cells were maintained at 37° C., 5% CO2, in DMEM (Gibco 11965-092) supplemented with L-glutamine 200 mM (100×) (Gibco25030-081), non-essential amino acids (NEAA)(Biowhittaker 13-114E), heat-inactivated (HI) Fetal Bovine Serum(FBS)(Hyclone SH3007.03) and 750 μg/ml geneticin (G418)(Gibco 10131-035). Cells were sub-divided 1:3 or 4 every 2-3 days.
24 hours prior to the assay, GS4.3 cells were collected, counted, and plated in 96-well plates (Costar 3585) at 7500 cells/well in 100 μl standard maintenance medium (above) and incubated in the conditions above. To initiate the assay, culture medium was removed, cells were washed once with PBS (Gibco 10010-023) and 90 μl Assay Medium (DMEM, L-glutamine, NEAA, 10% HI FBS, no G418) was added. Inhibitors were made as a 10× stock in Assay Medium, (3-fold dilutions from 10 μM to […] final concentration, final DMSO concentration 1%), 10 μl were added to duplicate wells, plates were rocked to mix, and incubated as above for 72 h.
An NPTII ELISA kit was obtained from AGDIA, Inc. (Compound direct ELISA test system for Neomycin Phosphotransferase II, PSP 73000/4800). Manufacturer's instructions were followed, with some modifications. 10×PEB-1 lysis buffer was made up to include 500 μM PMSF (Sigma P7626, 50 mM stock in isopropanol). After 72 h incubation, cells were washed once with PBS and 150 μl PEB-1 with PMSF was added per well. Plates were agitated vigorously for 15 minutes, room temperature, then frozen at −70° C. Plates were thawed, lysates were mixed thoroughly, and 100 μl were applied to an NPTII Elisa plate. A standard curve was made. Lysate from DMSO-treated control cells was pooled, serially diluted with PEB-1 with PMSF, and applied to duplicate wells of the ELISA plate, in a range of initial lysate amount of 150u1-2.5 ul. In addition, 100 μl buffer alone was applied in duplicate as a blank. Plates were sealed and gently agitated at room temperature for 2 h. Following capture incubation, the plates were washed 5×300 μl with PBS-T (0.5% Tween-20, PBS-T was supplied in the ELISA kit). For detection, a 1× dilution of enzyme conjugate diluent MRS-2 (5×) was made in PBS-T, into which 1:100 dilutions of enzyme conjugates A and B were added, as per instructions. Plates were resealed, and incubated with agitation, covered, room temperature, for 2 h. The washing was then repeated and 100 μl of room temperature TMB substrate was added. After approximately 30 minutes incubation (room temperature, agitation, covered), the reaction was stopped with 50 μl 3M sulfuric acid. Plates were read at 450 nm on a Molecular Devices Versamax plate reader.
Inhibitor effect was expressed as a percentage of DMSO-treated control signal, and inhibition curves were calculated using a 4-parameter equation: y=A+((B−A)/(1+((C/x)^D))), where C is half-maximal activity or EC50.

The target of another assay is T1, NS3-NS4A protease (Hepatitis C virus genotype 1a, UniProt P27958).
T1 construct: Recombinant E. coli or Baculovirus full-length NS3 was diluted to 3.33 μM with assay buffer; made in house; host or cells: E. coli or baculovirus (BV) system
T1 sequence (P27958 1027-1657): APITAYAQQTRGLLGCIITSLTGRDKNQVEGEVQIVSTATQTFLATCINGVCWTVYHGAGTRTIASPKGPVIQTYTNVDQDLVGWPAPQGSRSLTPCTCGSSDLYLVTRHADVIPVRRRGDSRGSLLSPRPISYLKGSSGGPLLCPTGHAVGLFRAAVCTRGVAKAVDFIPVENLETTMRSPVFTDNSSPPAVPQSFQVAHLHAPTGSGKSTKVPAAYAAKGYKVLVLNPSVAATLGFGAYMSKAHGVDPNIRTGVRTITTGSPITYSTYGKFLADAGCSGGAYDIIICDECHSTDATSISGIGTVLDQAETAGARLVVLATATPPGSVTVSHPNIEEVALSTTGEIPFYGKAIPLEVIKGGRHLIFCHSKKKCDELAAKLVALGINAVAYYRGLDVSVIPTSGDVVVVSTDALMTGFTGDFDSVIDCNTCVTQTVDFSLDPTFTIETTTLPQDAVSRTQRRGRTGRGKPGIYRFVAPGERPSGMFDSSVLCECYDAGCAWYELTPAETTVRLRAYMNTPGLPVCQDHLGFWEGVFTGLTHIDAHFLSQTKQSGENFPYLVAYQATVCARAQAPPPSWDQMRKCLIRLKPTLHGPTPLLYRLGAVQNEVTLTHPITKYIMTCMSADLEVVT
In words: NS3-NS4A protease assay (NS3 inhibition assay, RETS1 substrate), Section B. The assay is classed as biochemical. To be noted: read-out: NS3-NS4A IC50. A digest of the protocol:
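Full-length NS3 (E. coli or baculovirus) precomplexed with excess NS4A-2 peptide, run at 2 nM (E. coli) or 3 nM (BV) NS3; compounds pre-incubated 10 min at room temperature before RETS1 substrate. Fluorescence (ex 335/em 495 nm) read kinetically 30 min; IC50 from four-parameter fit, converted to Ki via Ki=IC50/(1+[S]/Km).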

`O=C(N[C@H]1CCCCC/C=C\[C@@H]2C[C@@]2(C(=O)O)NC(=O)[C@@H]2C[C@@H](OC(=O)N3Cc4ccccc4C3)CN2C1=O)OCCF` [AR00320076, (1S,4R,6S,14S,18R)-18-(1,3-Dihydro-isoindole-2-carbonyloxy)-2,15-dioxo-14-(2-fluoro-ethoxycarbonylamino)-3,16-diaza-tricyclo[14.3.0.0^4,6]nonadec-7-ene-4-carboxylic acid]: the concentration for a half-maximal effect (EC50) in assay [1] (GS4.3 cells, 72 h incubation) was below 10000 nM. Further, at NS3-NS4A protease, the IC50 is below 1000 nM.

Consider `CC(C)(OC(=O)N[C@H]1CCCCC/C=C\[C@@H]2C[C@@]2(C(=O)NS(=O)(=O)C2CC2)NC(=O)[C@@H]2C[C@@H](OC(=O)N3CCc4ccccc4C3)CN2C1=O)C(F)(F)F` [AR00320582, (1S,4R,6S,14S,18R)-3,4-Dihydro-1H-isoquinoline-2-carboxylic acid 4-cyclopropanesulfonylaminocarbonyl-2,15-dioxo-14-(2,2,2-trifluoro-1,1-dimethyl-ethoxycarbonylamino)-3,16-diaza-tricyclo[14.3.0.0^4,6]nonadec-7-en-18-yl ester], for which the 50% effective concentration (EC50) in assay [1] (GS4.3 cells, 72 h incubation) is below 100 nM. Further, on NS3-NS4A protease, the IC50 is below 100 nM.

Consider `CC(C)(C)OC(=O)N[C@H]1CCCCC/C=C\[C@@H]2C[C@@]2(C(=O)NS(=O)(=O)C2CC2)NC(=O)[C@@H]2C[C@@H](OC(=O)N3Cc4ccc(N5CCOCC5)cc4C3)CN2C1=O` [AR00340494, (1S,4R,6S,14S,18R)-5-Morpholin-4-yl-1,3-dihydro-isoindole-2-carboxylic acid 14-tert-butoxycarbonylamino-4-cyclopropanesulfonylaminocarbonyl-2,15-dioxo-3,16-diaza-tricyclo[14.3.0.0^4,6]nonadec-7-en-18-yl ester], for which the EC50 in assay [1] (GS4.3 cells, 72 h incubation) was below 100 nM. The 50% inhibitory concentration (IC50) on NS3-NS4A protease is below 100 nM.

Take `CC(C)(C)OC(=O)N[C@H]1CCCCC/C=C\[C@@H]2C[C@@]2(C(=O)NS(C)(=O)=O)NC(=O)[C@@H]2C[C@@H](OC(=O)N3Cc4ccccc4C3)CN2C1=O` [AR00333803, (1S,4R,6S,14S,18R)-1,3-Dihydro-isoindole-2-carboxylic acid 14-tert-butoxycarbonylamino-4-methanesulfonylaminocarbonyl-2,15-dioxo-3,16-diaza-tricyclo[14.3.0.0^4,6]nonadec-7-en-18-yl ester]: the EC50 in assay [1] (GS4.3 cells, 72 h incubation) is below 1000 nM. In addition, the half-inhibitory concentration (IC50) on NS3-NS4A protease was below 100 nM.

On to `COCC1c2cccc(F)c2CCN1C(=O)O[C@@H]1C[C@H]2C(=O)N[C@]3(C(=O)O)C[C@H]3/C=C\CCCCC[C@H](NC(=O)OC(C)(C)C)C(=O)N2C1` (stereo partly drawn) [AR00365349, (1S,4R,6S,14S,18R)-14-tert-Butoxycarbonylamino-18-(5-fluoro-1-methoxymethyl-3,4-dihydro-1H-isoquinoline-2-carbonyloxy)-2,15-dioxo-3,16-diaza-tricyclo[14.3.0.0^4,6]nonadec-7-ene-4-carboxylic acid], for which the EC50 in assay [1] (GS4.3 cells, 72 h incubation) was below 1000 nM. In addition, the 50% inhibitory concentration (IC50) on NS3-NS4A protease was below 1000 nM.

Turning to `CCNC(=O)c1ccc2c(c1)CN(C(=O)O[C@@H]1C[C@H]3C(=O)N[C@]4(C(=O)NS(=O)(=O)C5CC5)C[C@H]4/C=C\CCCCC[C@H](NC(=O)OC(C)(C)C)C(=O)N3C1)C2` [AR00365252, (1S,4R,6S,14S,18R)-5-Ethylcarbamoyl-1,3-dihydro-isoindole-2-carboxylic acid 14-tert-butoxycarbonylamino-4-cyclopropanesulfonylaminocarbonyl-2,15-dioxo-3,16-diaza-tricyclo[14.3.0.0^4,6]nonadec-7-en-18-yl ester], the EC50 in assay [1] (GS4.3 cells, 72 h incubation) was below 1000 nM. Besides, at NS3-NS4A protease, the IC50 is below 100 nM.

Regarding `COc1ccc(S(=O)(=O)NC(=O)[C@@]23C[C@H]2/C=C\CCCCC[C@H](NC(=O)OC(C)(C)C)C(=O)N2C[C@H](OC(=O)N4CCc5ccccc5C4)C[C@H]2C(=O)N3)cc1` [AR00320548, (1S,4R,6S,14S,18R)-3,4-Dihydro-1H-isoquinoline-2-carboxylic acid 14-tert-butoxycarbonylamino-4-(4-methoxy-benzenesulfonylaminocarbonyl)-2,15-dioxo-3,16-diaza-tricyclo[14.3.0.0^4,6]nonadec-7-en-18-yl ester], the EC50 in assay [1] (72 h) is below 100 nM. The IC50 on NS3-NS4A protease is below 100 nM.

Regarding `CC(C)(C)OC(=O)N[C@H]1CCCCC/C=C\[C@@H]2C[C@@]2(C(=O)NS(=O)(=O)c2ccc(Cl)s2)NC(=O)[C@@H]2C[C@@H](OC(=O)N3Cc4ccccc4C3)CN2C1=O` [AR00334188, (1S,4R,6S,14S,18R)-1,3-Dihydro-isoindole-2-carboxylic acid 14-tert-butoxycarbonylamino-4-(5-chloro-thiophene-2-sulfonylaminocarbonyl)-2,15-dioxo-3,16-diaza-tricyclo[14.3.0.0^4,6]nonadec-7-en-18-yl ester], the EC50 in assay [1] (GS4.3 cells, 72 h incubation) is below 1000 nM. In addition, on NS3-NS4A protease, the IC50 is below 100 nM.

For `CC(C)(C)OC(=O)N[C@H]1CCCCC/C=C\[C@@H]2C[C@@]2(C(=O)NS(=O)(=O)C2CC2)NC(=O)[C@@H]2C[C@@H](OC(=O)N3Cc4cccc(N)c4C3)CN2C1=O` [AR00334385, (1S,4R,6S,14S,18R)-4-Amino-1,3-dihydro-isoindole-2-carboxylic acid 14-tert-butoxycarbonylamino-4-cyclopropanesulfonylaminocarbonyl-2,15-dioxo-3,16-diaza-tricyclo[14.3.0.0^4,6]nonadec-7-en-18-yl ester], the EC50 in assay [1] (GS4.3 cells, 72 h incubation) was below 100 nM. Besides, the IC50 on NS3-NS4A protease was below 100 nM.

For `CC(C)(C)OC(=O)N[C@H]1CCCCC/C=C\[C@@H]2C[C@@]2(C(=O)O)NC(=O)[C@@H]2C[C@@H](OC(=O)N3Cc4cc(Cl)c(Cl)cc4C3)CN2C1=O` [AR00315999, (1S,4R,6S,14S,18R)-14-tert-Butoxycarbonylamino-18-(5,6-dichloro-1,3-dihydro-isoindole-2-carbonyloxy)-2,15-dioxo-3,16-diaza-tricyclo[14.3.0.0^4,6]nonadec-7-ene-4-carboxylic acid], the EC50 in assay [1] (GS4.3 cells, 72 h incubation) is below 10000 nM. For the same compound, the half-maximal inhibitory concentration (IC50) on NS3-NS4A protease is below 1000 nM.

Consider `O=C(N[C@H]1CCCCC/C=C\[C@@H]2C[C@@]2(C(=O)NS(=O)(=O)C2CC2)NC(=O)[C@@H]2C[C@@H](OC(=O)N3Cc4ccccc4C3)CN2C1=O)O[C@H]1CCOC1` [AR00320080, (1S,4R,6S,14S,18R)-1,3-Dihydro-isoindole-2-carboxylic acid 4-cyclopropanesulfonylaminocarbonyl-2,15-dioxo-14-(tetrahydro-furan-3S-yloxycarbonylamino)-3,16-diaza-tricyclo[14.3.0.0^4,6]nonadec-7-en-18-yl ester], for which the EC50 in assay [1] (GS4.3 cells, 72 h incubation) is below 1000 nM. For the same compound, at NS3-NS4A protease, the IC50 is below 100 nM.

Regarding `CC(C)(C)NC(=O)N[C@H]1CCCCC/C=C\[C@@H]2C[C@@]2(C(=O)NS(=O)(=O)C2CC2)NC(=O)[C@@H]2C[C@@H](OC(=O)N3Cc4ccccc4C3)CN2C1=O` [AR00320220, (1S,4R,6S,14S,18R)-1,3-Dihydro-isoindole-2-carboxylic acid 14-(3-tert-butyl-ureido)-4-cyclopropanesulfonylaminocarbonyl-2,15-dioxo-3,16-diaza-tricyclo[14.3.0.0^4,6]nonadec-7-en-18-yl ester], in assay [1] (GS4.3 cells, 72 h incubation), the EC50 is below 100 nM. For the same compound, on NS3-NS4A protease, the IC50 is below 100 nM.

These data come from patent US7491794B2, “Macrocyclic compounds as inhibitors of viral replication” (Intermune, Inc., priority 2003, dated 2009).
